Test results reported in PubChem BioAssay (NCI).
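Following 48 hours of exposure in 96-well plates, responses at five concentrations were used to interpolate endpoints linearly. GI50: concentration for 50% inhibition of growth. TGI is the concentration that stops growth completely.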

These compounds were tested on COLO 205 colon (assay: NCI tumour cell line growth inhibition, 48 h).

Point of comparison: `N#CC(c1ccc(Cl)cc1)c1cccc(C(C#N)c2ccc(Cl)cc2)n1` (stereo not given), TGI 43 µM. Against it:
- CCN(CCO)CC1CCCC2CCCCC21 (stereo not given) — higher, > 100 µM
- COC1(OC)CCC2C1C1CCC(OC)(OC)C21 (stereo not given) — higher, > 50 µM
- NNC(=O)Nc1cccnc1 — higher, > 100 µM
- CCCCCCCCCCCOc1ccc(C(=O)C(=O)c2ccc(OCCCCCCCCCCC)c(OCCCCCCCCCCC)c2)cc1OCCCCCCCCCCC — higher, > 100 µM
- CCOC(=O)C1=C(C)NC(=S)NC1c1ccccc1 (stereo not given) — higher, > 60.7 µM
- O=C(/C=C/c1ccccc1)NC1C=Nc2ccc(Cl)cc2NC1=O (stereo not given) — within 1.5-fold, 33.9 µM
- CC(C)C/C(CC(=O)CCC(=O)Nc1ccccc1[N+](=O)[O-])=N\NC(=O)c1cc2ccccc2cc1O — 1.6-fold higher, 69 µM
- O=C(O)c1ccccc1[Se][Se]c1ccccc1C(=O)O — higher, > 100 µM
- CCCCC(=O)OCC(=O)[C@]1(O)Cc2c(O)c3c(c(O)c2[C@@H](OC2CC(NC(=O)C(F)(F)F)C(O)C(C)O2)C1)C(=O)c1c(OC)cccc1C3=O (stereo not given in full) — 12-fold lower, 3.69 µM
- O=C(O)CCc1coc2ccc(O)cc12 — higher, > 100 µM
- C[C@]12CC[C@H](O)CC1=CC[C@@H]1C2CC[C@]2(C)C(=O)N(N)C(=O)CC12 (stereo not given in full) — higher, > 100 µM
- Clc1cc2nsnc2c(Cl)n1 — within 1.5-fold, 31.7 µM
- COc1cc(Cc2cnc(/N=C3\C(=O)N(CN4CCN(c5c(F)cc6c(=O)c(C(=O)O)cn(C7CC7)c6c5OC)CC4C)c4ccc(F)cc43)nc2N)cc(OC)c1OC (stereo not given) — within 1.5-fold, 58.8 µM
- C=C(CN1CCN(c2ccc(Cl)cc2F)CC1)c1ccc(C(=O)Nc2ccccc2N)cc1 — higher, > 95.3 µM
- CC(C)=CC(=O)C1c2cccc(O)c2C(=O)c2c(O)cc(C)cc21 (stereo not given) — 13-fold lower, 3.4 µM
- Cc1cccc2c(=O)cc(-c3ccccc3)[nH]c12 — within 1.5-fold, 51.5 µM
- COC(CN1C(=O)c2cccc3cccc(c23)C1=O)OC — higher, > 100 µM
- O=C(Nc1ccccc1)NS(=O)(=O)c1ccc(-n2nc3c(c2-c2cccs2)Cc2ccccc2-3)cc1 — higher, > 100 µM
- CCCCOC(=O)C1OC(O[C@H]2CCC3(C)C(CCC4(C)C3CC=C3C5CC(C)(C)CCC5(C(=O)O)CC[C@]34C)C2(C)C)C(OC2OC(CO)C(O)C(O)C2O)C(OC2OC(CO)C(O)C(O)C2O)C1O (stereo not given in full) — within 1.5-fold, 52.3 µM
- Cc1nc2ccccc2c(=O)n1-c1ccccc1I — higher, > 100 µM
- O=C1C=C(Cl)C(=O)C(c2ccc(Cl)cc2)=C1 — within 1.5-fold, 31 µM
- CCOc1ccc(NC(=O)C(=O)CC(=O)c2c[n+](=O)c3cc(C)c(C)cc3n2[O-])cc1 — higher, > 100 µM
- CN1C(=O)C(C)(C)C2(SC(C)(C)C2(C)C)N(C)C1=S (stereo not given) — higher, > 100 µM
- Cn1cc(C2=C(c3cn(C)c4ncccc34)C(=O)NC2=O)c2ccccc21 — 3.3-fold lower, 13 µM
- CC(=O)NNc1nc(C)c(C(=O)NNC(=O)C(=O)Nc2ccc(Cl)cc2)s1 — higher, > 100 µM
- CN/N=C(/Cc1occc(=O)c1O)C(=O)Nc1ccccc1C — higher, > 100 µM
- COc1cc(/C=N/NC(=O)c2ccc(C(F)(F)F)nc2Nc2ccc(Cl)cc2C)ccc1O — 4.1-fold lower, 10.4 µM
- O=C(N/C(=C\c1ccc(/C=C(\NC(=O)c2ccccc2)c2nc3cc([N+](=O)[O-])ccc3[nH]2)cc1)c1nc2cc([N+](=O)[O-])ccc2[nH]1)c1ccccc1 — higher, > 100 µM
- COc1ccc(C(=O)Cn2c(C(=O)c3ccccc3)nc(-c3ccc(OC)cc3)c2-c2ccc(OC)cc2)cc1 — higher, > 100 µM
- CC1(c2ccc(F)cc2)C(C#N)C(=O)NC(=O)C1C#N (stereo not given) — higher, > 100 µM
- Cc1ccc(N=Nc2ccc(N(CCC#N)CCC#N)cc2C)c(Br)c1 — higher, > 100 µM
- Cc1cc(C)nc(NS(=O)(=O)c2ccc(NC(=O)c3ccc(Cl)c4c(Nc5ccc(S(=O)(=O)Nc6nc(C)cc(C)n6)cc5)c5ccccc5nc34)cc2)n1 — higher, > 100 µM
- COc1ccc2c3c1C(=O)CCCC3CO2 (stereo not given) — higher, > 100 µM
- CCCCCN(CCCCC)CCCNc1c2c(nc3ccc(Cl)cc13)CCCC2 — 15-fold lower, 2.81 µM
- Cn1c2ccccc2c2c(Nc3ccccc3)c3ccccc3nc21 — higher, > 100 µM
- O=S1(=O)c2ccccc2NC(c2ccc3ccccc3c2)CC1c1ccccc1F (stereo not given) — higher, > 100 µM

Point of comparison: `CCCCOC(=O)C1OC(O[C@H]2CCC3(C)C(CCC4(C)C3CC=C3C5CC(C)(C)CCC5(C(=O)O)CC[C@]34C)C2(C)C)C(OC2OC(CO)C(O)C(O)C2O)C(OC2OC(CO)C(O)C(O)C2O)C1O` (stereo not given in full), GI50 20.1 µM. Against it:
- COc1cc(Cc2cnc(/N=C3\C(=O)N(CN4CCN(c5c(F)cc6c(=O)c(C(=O)O)cn(C7CC7)c6c5OC)CC4C)c4ccc(F)cc43)nc2N)cc(OC)c1OC (stereo not given) — within 1.5-fold, 15 µM
- C=C(CN1CCN(c2ccc(Cl)cc2F)CC1)c1ccc(C(=O)Nc2ccccc2N)cc1 — within 1.5-fold, 16.7 µM
- O=C(Nc1ccccc1)NS(=O)(=O)c1ccc(-n2nc3c(c2-c2cccs2)Cc2ccccc2-3)cc1 — 2.2-fold higher, 44 µM
- Cn1cc(C2=C(c3cn(C)c4ncccc34)C(=O)NC2=O)c2ccccc21 — 3.8-fold lower, 5.23 µM
- COc1cc(/C=N/NC(=O)c2ccc(C(F)(F)F)nc2Nc2ccc(Cl)cc2C)ccc1O — 6.2-fold lower, 3.25 µM
- COc1ccc(C(=O)Cn2c(C(=O)c3ccccc3)nc(-c3ccc(OC)cc3)c2-c2ccc(OC)cc2)cc1 — higher, > 100 µM
- CCCCCN(CCCCC)CCCNc1c2c(nc3ccc(Cl)cc13)CCCC2 — 16-fold lower, 1.28 µM
- Cn1c2ccccc2c2c(Nc3ccccc3)c3ccccc3nc21 — 2.9-fold higher, 59 µM

The compounds below were run on A498 renal (assay: NCI tumour cell line growth inhibition, 48 h).

Point of comparison: `Cc1cccc2c(=O)cc(-c3ccccc3)[nH]c12`, TGI 36 µM. Against it:
- CCN(CCO)CC1CCCC2CCCCC21 (stereo not given) — higher, > 100 µM
- COC1(OC)CCC2C1C1CCC(OC)(OC)C21 (stereo not given) — higher, > 50 µM
- NNC(=O)Nc1cccnc1 — higher, > 100 µM
- CCCCCCCCCCCOc1ccc(C(=O)C(=O)c2ccc(OCCCCCCCCCCC)c(OCCCCCCCCCCC)c2)cc1OCCCCCCCCCCC — higher, > 100 µM
- CCOC(=O)C1=C(C)NC(=S)NC1c1ccccc1 (stereo not given) — higher, > 100 µM
- O=C(/C=C/c1ccccc1)NC1C=Nc2ccc(Cl)cc2NC1=O (stereo not given) — higher, > 100 µM
- COC1CCC2C(NS(=O)(=O)c3ccc(C)cc3)CCCC2O1 (stereo not given) (tested in a mixture with another compound) — not separable, > 34.5 µM
- O=C(O)c1ccccc1[Se][Se]c1ccccc1C(=O)O — higher, > 100 µM
- CCCCC(=O)OCC(=O)[C@]1(O)Cc2c(O)c3c(c(O)c2[C@@H](OC2CC(NC(=O)C(F)(F)F)C(O)C(C)O2)C1)C(=O)c1c(OC)cccc1C3=O (stereo not given in full) — 38-fold lower, 0.948 µM
- O=C(O)CCc1coc2ccc(O)cc12 — higher, > 100 µM
- C[C@]12CC[C@H](O)CC1=CC[C@@H]1C2CC[C@]2(C)C(=O)N(N)C(=O)CC12 (stereo not given in full) — higher, > 100 µM
- Clc1cc2nsnc2c(Cl)n1 — higher, > 100 µM
- N#CC1C(C#N)C2(c3ccccc3)C(c3ccccc3)=NN(c3ccccc3)CC12 (stereo not given) — higher, > 100 µM
- COc1cc(Cc2cnc(/N=C3\C(=O)N(CN4CCN(c5c(F)cc6c(=O)c(C(=O)O)cn(C7CC7)c6c5OC)CC4C)c4ccc(F)cc43)nc2N)cc(OC)c1OC (stereo not given) — within 1.5-fold, 49.7 µM
- C=C(CN1CCN(c2ccc(Cl)cc2F)CC1)c1ccc(C(=O)Nc2ccccc2N)cc1 — higher, > 80.4 µM
- CC(C)=CC(=O)C1c2cccc(O)c2C(=O)c2c(O)cc(C)cc21 (stereo not given) — within 1.5-fold, 37.3 µM
- COC(CN1C(=O)c2cccc3cccc(c23)C1=O)OC — higher, > 100 µM
- Cc1nc2ccccc2c(=O)n1-c1ccccc1I — higher, > 100 µM
- O=C1C=C(Cl)C(=O)C(c2ccc(Cl)cc2)=C1 — within 1.5-fold, 50.8 µM
- CCOc1ccc(NC(=O)C(=O)CC(=O)c2c[n+](=O)c3cc(C)c(C)cc3n2[O-])cc1 — higher, > 100 µM
- Cn1cc(C2=C(c3cn(C)c4ncccc34)C(=O)NC2=O)c2ccccc21 — 3.3-fold lower, 11 µM
- CN/N=C(/Cc1occc(=O)c1O)C(=O)Nc1ccccc1C — higher, > 100 µM
- COc1cc(/C=N/NC(=O)c2ccc(C(F)(F)F)nc2Nc2ccc(Cl)cc2C)ccc1O — 2.5-fold lower, 14.5 µM
- O=C(N/C(=C\c1ccc(/C=C(\NC(=O)c2ccccc2)c2nc3cc([N+](=O)[O-])ccc3[nH]2)cc1)c1nc2cc([N+](=O)[O-])ccc2[nH]1)c1ccccc1 — higher, > 100 µM
- COc1ccc(C(=O)Cn2c(C(=O)c3ccccc3)nc(-c3ccc(OC)cc3)c2-c2ccc(OC)cc2)cc1 — higher, > 100 µM
- CC1=C(C(=O)NCc2ccccc2)C(/C=C/c2ccccc2)C(C(=O)NCc2ccccc2)=C(C)N1 — higher, > 100 µM
- N#CCCN(CCC#N)c1ccc(/C=C2\N=C(c3cc([N+](=O)[O-])ccc3Cl)OC2=O)cc1 — higher, > 100 µM
- CC1(c2ccc(F)cc2)C(C#N)C(=O)NC(=O)C1C#N (stereo not given) — higher, > 100 µM
- Cc1ccc(N=Nc2ccc(N(CCC#N)CCC#N)cc2C)c(Br)c1 — higher, > 100 µM
- Cc1cc(C)nc(NS(=O)(=O)c2ccc(NC(=O)c3ccc(Cl)c4c(Nc5ccc(S(=O)(=O)Nc6nc(C)cc(C)n6)cc5)c5ccccc5nc34)cc2)n1 — 1.6-fold higher, 57.4 µM
- COc1ccc2c3c1C(=O)CCCC3CO2 (stereo not given) — higher, > 100 µM
- N#CC(c1ccc(Cl)cc1)c1cccc(C(C#N)c2ccc(Cl)cc2)n1 (stereo not given) — 3.3-fold lower, 10.9 µM
- CCCCCN(CCCCC)CCCNc1c2c(nc3ccc(Cl)cc13)CCCC2 — 4-fold lower, 8.94 µM
- O=S1(=O)c2ccccc2NC(c2ccc3ccccc3c2)CC1c1ccccc1F (stereo not given) — higher, > 100 µM

Point of comparison: `C=C(CN1CCN(c2ccc(Cl)cc2F)CC1)c1ccc(C(=O)Nc2ccccc2N)cc1`, GI50 3.03 µM. Against it:
- COc1cc(Cc2cnc(/N=C3\C(=O)N(CN4CCN(c5c(F)cc6c(=O)c(C(=O)O)cn(C7CC7)c6c5OC)CC4C)c4ccc(F)cc43)nc2N)cc(OC)c1OC (stereo not given) — 8.6-fold higher, 26 µM
- Cn1cc(C2=C(c3cn(C)c4ncccc34)C(=O)NC2=O)c2ccccc21 — within 1.5-fold, 3.73 µM
- COc1cc(/C=N/NC(=O)c2ccc(C(F)(F)F)nc2Nc2ccc(Cl)cc2C)ccc1O — within 1.5-fold, 3.1 µM
- COc1ccc(C(=O)Cn2c(C(=O)c3ccccc3)nc(-c3ccc(OC)cc3)c2-c2ccc(OC)cc2)cc1 — higher, > 100 µM
- CCCCCN(CCCCC)CCCNc1c2c(nc3ccc(Cl)cc13)CCCC2 — 1.8-fold lower, 1.72 µM

What follows are compounds tested on SF-268 CNS (assay: NCI tumour cell line growth inhibition, 48 h).

Point of comparison: `COc1cc(Cc2cnc(/N=C3\C(=O)N(CN4CCN(c5c(F)cc6c(=O)c(C(=O)O)cn(C7CC7)c6c5OC)CC4C)c4ccc(F)cc43)nc2N)cc(OC)c1OC` (stereo not given), TGI 57.7 µM. Against it:
- CCN(CCO)CC1CCCC2CCCCC21 (stereo not given) — higher, > 100 µM
- COC1(OC)CCC2C1C1CCC(OC)(OC)C21 (stereo not given) — not separable, > 50 µM
- CCCCCCCCCCCOc1ccc(C(=O)C(=O)c2ccc(OCCCCCCCCCCC)c(OCCCCCCCCCCC)c2)cc1OCCCCCCCCCCC — higher, > 100 µM
- CCOC(=O)C1=C(C)NC(=S)NC1c1ccccc1 (stereo not given) — higher, > 100 µM
- O=C(/C=C/c1ccccc1)NC1C=Nc2ccc(Cl)cc2NC1=O (stereo not given) — higher, > 100 µM
- COC1CCC2C(NS(=O)(=O)c3ccc(C)cc3)CCCC2O1 (stereo not given) (tested in a mixture with another compound) — not separable, > 34.5 µM
- CC(C)C/C(CC(=O)CCC(=O)Nc1ccccc1[N+](=O)[O-])=N\NC(=O)c1cc2ccccc2cc1O — higher, > 100 µM
- O=C(O)c1ccccc1[Se][Se]c1ccccc1C(=O)O — higher, > 100 µM
- CCCCC(=O)OCC(=O)[C@]1(O)Cc2c(O)c3c(c(O)c2[C@@H](OC2CC(NC(=O)C(F)(F)F)C(O)C(C)O2)C1)C(=O)c1c(OC)cccc1C3=O (stereo not given in full) — 12-fold lower, 4.99 µM
- C[C@]12CC[C@H](O)CC1=CC[C@@H]1C2CC[C@]2(C)C(=O)N(N)C(=O)CC12 (stereo not given in full) — higher, > 100 µM
- Clc1cc2nsnc2c(Cl)n1 — within 1.5-fold, 79.4 µM

`COc1cc(Cc2cnc(/N=C3\C(=O)N(CN4CCN(c5c(F)cc6c(=O)c(C(=O)O)cn(C7CC7)c6c5OC)CC4C)c4ccc(F)cc43)nc2N)cc(OC)c1OC` (stereo not given) showed a GI50 of 18.2 µM.
